Measurements as given in PubChem BioAssay (NCI).
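Assay format: 96-well plates, 48-hour exposure. Here, GI50 denotes the concentration required for 50% inhibition of growth. At the TGI there is no net growth.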

Experiments:
Experiment in all cases: DTP human tumour cell line panel, 48 h
A549 NSCLC = system: A549 NSCLC
HCC-2998 colon = system: HCC-2998 colon
KM12 colon = system: KM12 colon
NCI-H226 lung = system: NCI-H226 lung
NCI-H460 lung = system: NCI-H460 lung
OVCAR-4 ovarian = system: OVCAR-4 ovarian
SF-295 CNS = system: SF-295 CNS
MDA-MB-231 breast = system: MDA-MB-231 breast
MDA-MB-435 = system: MDA-MB-435
NCI/ADR-RES ovarian = system: NCI/ADR-RES ovarian

Compound | TGI (A549 NSCLC) [µM] | TGI (HCC-2998 colon) [µM] | TGI (KM12 colon) [µM] | TGI (NCI-H226 lung) [µM] | TGI (NCI-H460 lung) [µM] | TGI (OVCAR-4 ovarian) [µM] | TGI (SF-295 CNS) [µM] | TGI (MDA-MB-231 breast) [µM] | TGI (MDA-MB-435) [µM] | TGI (NCI/ADR-RES ovarian) [µM] | GI50 (A549 NSCLC) [µM] | GI50 (HCC-2998 colon) [µM] | GI50 (KM12 colon) [µM] | GI50 (MDA-MB-231 breast) [µM] | GI50 (NCI-H226 lung) [µM] | GI50 (NCI-H460 lung) [µM] | GI50 (NCI/ADR-RES ovarian) [µM] | GI50 (OVCAR-4 ovarian) [µM] | GI50 (SF-295 CNS) [µM] | GI50 (MDA-MB-435) [µM]
O=c1c2c(-c3ccccc3)c3ccccc3nc2cnn1-c1ccccc1 | > 100 | > 100 | > 100 | > 100 | > 100 | > 100 | > 100 | – | – | – | – | – | – | – | – | – | – | – | – | –
COc1cccc(-c2cc(=O)c3cc4c(cc3[nH]2)OCO4)c1 | > 100 | 0.934 | – | 0.593 | 0.898 | – | 0.828 | – | – | – | – | – | – | – | – | – | – | – | – | –
N=c1c2ccccc2sc2nc3ccccc3n12 | > 100 | > 100 | > 100 | > 100 | > 100 | > 100 | > 100 | – | – | – | – | – | – | – | – | – | – | – | – | –
OC1=CN=COc2ccccc21 | > 100 | > 100 | > 100 | – | > 100 | > 100 | > 100 | – | – | – | – | – | – | – | – | – | – | – | – | –
CN(C)N1C(=O)SCC(c2ccccc2)(c2ccccc2)C1=O | > 100 | > 100 | > 100 | > 100 | > 100 | – | > 100 | > 100 | > 100 | > 100 | – | – | – | – | – | – | – | – | – | –
COc1cc(OC)c2sc(-c3ccc(-n4cncc4-c4ccc(OC)c(OC)c4)cc3)nc2c1 | > 100 | > 100 | > 100 | > 100 | > 100 | > 100 | > 100 | > 100 | – | > 100 | 41.8 | > 100 | 6.8 | 28.4 | 6.44 | 6.06 | > 100 | 4.21 | 7 | –
C=C1C(=O)C23[C@H](O)C1CC[C@H]2[C@]12COC3(O)[C@@H](O)[C@@H]1C(C)(C)CC[C@@H]2O | 44.7 | 29.9 | 31.4 | – | 30.7 | 33.5 | 32.2 | – | – | – | – | – | – | – | – | – | – | – | – | –
COc1ccc(-c2nc(-c3nc4cc(Cl)c(F)cc4[nH]3)c3ccccn23)cc1 | > 100 | > 100 | > 100 | > 100 | > 100 | > 100 | – | > 100 | > 100 | > 100 | 4.04 | 4.03 | 4.56 | 5.82 | 14.5 | 5.43 | 5.5 | 7.93 | – | 3.8
CC(=O)c1ccc(NC(=O)C(=O)C(C(=O)/C=C/c2ccccc2)C2OC(=O)c3ccccc32)cc1 (centres undefined) | > 100 | > 100 | > 100 | > 100 | > 100 | > 100 | > 100 | – | – | – | – | – | – | – | – | – | – | – | – | –
CC(=O)OC(C(=O)[O][Sn]([CH3])([CH3])[CH3])c1ccccc1 (centres undefined) | > 100 | > 100 | > 100 | > 100 | > 100 | > 100 | > 100 | – | – | – | > 100 | > 100 | > 100 | – | > 100 | > 100 | – | > 100 | > 100 | –
CCOc1ccc(N=C(NC(=O)c2ccccc2)SC)cc1 | > 100 | > 100 | – | > 100 | > 100 | > 100 | > 100 | – | – | – | – | – | – | – | – | – | – | – | – | –
COC/N=C(\NC#N)NCOC | > 100 | > 100 | > 100 | > 100 | > 100 | > 100 | > 100 | – | – | – | – | – | – | – | – | – | – | – | – | –
COc1ccccc1-c1cc(=O)c2cc(C)c(C)c(C(=O)O)c2o1 | > 100 | > 100 | > 100 | – | > 100 | > 100 | > 100 | – | – | – | – | – | – | – | – | – | – | – | – | –
NC(=O)c1cccnc1 | > 100 | – | > 100 | > 100 | > 100 | > 100 | > 100 | > 100 | > 100 | > 100 | > 100 | – | > 100 | > 100 | > 100 | > 100 | > 100 | > 100 | > 100 | > 100
COc1ccc(/C=C(\NC(=O)c2ccccc2)c2nc3ccccc3[nH]2)cc1OC | > 100 | > 100 | > 100 | > 100 | > 100 | > 100 | > 100 | – | – | – | – | – | – | – | – | – | – | – | – | –
CC(C)(C)NCC(O)COc1c(Br)c(Br)c(Br)c2c1OC(C)(C)C2 (centres undefined) | 3.84 | – | 3.4 | – | 3.28 | – | 3.95 | 3.01 | 3.96 | – | 2.06 | – | 1.82 | 1.54 | – | 1.77 | – | – | 2.26 | 2.02
CCOc1ccc(N=C2NC(=O)C(CC(=O)Nc3ccccc3[N+](=O)[O-])S2)cc1 (centres undefined) | > 100 | > 100 | – | > 100 | > 100 | > 100 | > 100 | – | – | – | – | – | – | – | – | – | – | – | – | –
O=C1CCC2(c3ccccc3)Nc3ccccc3N12 (centres undefined) | > 100 | > 100 | > 100 | > 100 | > 100 | > 100 | > 100 | – | – | – | – | – | – | – | – | – | – | – | – | –
Cc1cc(NCc2cc(Nc3ccnc4cc(Cl)ccc34)ccc2F)nc(N2CCOCC2)n1 | 21 | 5.44 | 4.59 | 5.61 | 4.77 | – | – | 4.51 | – | 6.97 | 3.89 | 2.27 | 2.01 | 1.83 | 1.89 | 2 | 2.34 | – | – | –
CCOc1cccc2c1N[S@@](=O)S2 | > 100 | – | > 100 | > 100 | – | – | > 100 | – | – | – | – | – | – | – | – | – | – | – | – | –
CO[C@H]1/C=C/O[C@@]2(C)Oc3c(C)c(O)c4c(O)c(c(/C=N/N5CCN(C)CC5)c(O)c4c3C2=O)NC(=O)/C(C)=C\C=C\[C@H](C)[C@H](O)[C@@H](C)[C@@H](O)[C@@H](C)[C@H](OC(C)=O)[C@@H]1C | > 100 | > 100 | > 100 | – | > 100 | – | – | > 100 | > 100 | > 100 | – | – | – | – | – | – | – | – | – | –
CCC1=CCN(c2cc(C)ccn2)OC1c1ccccc1 (centres undefined) | > 100 | 81.7 | > 100 | > 100 | > 100 | > 100 | > 100 | – | – | – | – | – | – | – | – | – | – | – | – | –
COc1cc2c(c3c1c(=O)c1ccccc1n3C)C=CC(C)(C)O2 | > 100 | – | > 100 | > 100 | > 100 | > 100 | > 100 | – | – | – | – | – | – | – | – | – | – | – | – | –
